Data published in patent US8785460B2, “Tricyclic compounds and use thereof” (Takeda Pharmaceutical Company Limited, priority 2008, dated 2014).

How the values were obtained:
human CRF1 receptor = target: T1, human CRF1 receptor (Homo sapiens, UniProt P34998); test: Measurement of CRF Binding Inhibitory Rate (receptor binding experiment with 125I-CRF); details: human CRF1 receptor expressing CHO cellular membrane fraction, 50 pM 125I-CRF, room temperature 1.5 hr, 0.05 nM to 10 μM of compound; read-out: IC50 values (CRF binding inhibition)
T1 construct: expressed in transfected cells; host or cells: CHO cells (membrane fraction)
T1 sequence (P34998 24-415): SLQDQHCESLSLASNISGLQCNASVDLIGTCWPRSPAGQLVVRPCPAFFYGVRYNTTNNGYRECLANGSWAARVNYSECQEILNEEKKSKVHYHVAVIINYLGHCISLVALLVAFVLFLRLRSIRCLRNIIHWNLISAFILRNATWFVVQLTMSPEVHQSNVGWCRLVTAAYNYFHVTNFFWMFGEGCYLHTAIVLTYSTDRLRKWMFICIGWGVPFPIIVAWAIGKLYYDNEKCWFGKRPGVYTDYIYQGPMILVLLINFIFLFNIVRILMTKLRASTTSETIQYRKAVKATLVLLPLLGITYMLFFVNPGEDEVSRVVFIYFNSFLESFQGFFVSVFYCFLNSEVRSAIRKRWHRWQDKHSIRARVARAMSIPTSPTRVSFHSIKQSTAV

Row | SMILES | IC50 (human CRF1 receptor) | melting point
1 | CCC(O)c1ccc(Cl)c2nc3n(c12)CCCN3c1c(Cl)cc(OC)cc1Cl (centres unmarked) [Example 394, 1-[9-Chloro-1-(2,6-dichloro-4-methoxyphenyl)-1,2,3,4-tetrahydropyrimido[1,2-a]benzimidazol-6-yl]propan-1-ol] | < 1000 nM | 206 to 208 °C
2 | CCC(O)c1ccc(Cl)c2nc3n(c12)CCCN3c1c(Br)cc(OC)cc1Br (centres unmarked) [Example 397, 1-[9-Chloro-1-(2,6-dibromo-4-methoxyphenyl)-1,2,3,4-tetrahydropyrimido[1,2-a]benzimidazol-6-yl]propan-1-ol] | < 1000 nM | 138 to 140 °C
3 | Cc1cc(C#N)ccc1N1CCCn2c1nc1c(Cl)ccc(C(OCC(F)(F)F)C3CC3)c12 (centres unmarked) [Example 402, 4-{9-Chloro-6-[cyclopropyl(2,2,2-trifluoroethoxy)methyl]-3,4-dihydropyrimido[1,2-a]benzimidazol-1(2H)-yl}-3-methylbenzonitrile] | < 1000 nM | 207 to 209 °C
4 | CCC(NC(=O)C(F)F)c1ccc(Cl)c2nc3n(c12)CCCN3c1c(Cl)cc(Cl)cc1Cl (centres unmarked) [Example 409, N-{1-[9-Chloro-1-(2,4,6-trichlorophenyl)-1,2,3,4-tetrahydropyrimido[1,2-a]benzimidazol-6-yl]propyl}-2,2-difluoroacetamide] | < 1000 nM | 211 to 213 °C
5 | CCC(NC(=O)OC)c1ccc(Cl)c2nc3n(c12)CCCN3c1c(Cl)cc(Cl)cc1Cl (centres unmarked) [Example 410, Methyl {1-[9-chloro-1-(2,4,6-trichlorophenyl)-1,2,3,4-tetrahydropyrimido[1,2-a]benzimidazol-6-yl]propyl}carbamate] | < 1000 nM | 231 to 233 °C
6 | CS(=O)(=O)NC(c1ccc(Cl)c2nc3n(c12)CCCN3c1c(Cl)cc(Cl)cc1Cl)C(F)(F)F (centres unmarked) [Example 416, N-{1-[9-Chloro-1-(2,4,6-trichlorophenyl)-1,2,3,4-tetrahydropyrimido[1,2-a]benzimidazol-6-yl]-2,2,2-trifluoroethyl}methanesulfonamide] | < 1000 nM | 290 to 291 °C
7 | Cc1cc(Cl)cc(Cl)c1N1CCn2c1nc1c(Cl)ccc(C(O)(C3CC3)C3CC3)c12 [Example 426, [8-Chloro-1-(2,4-dichloro-6-methylphenyl)-2,3-dihydro-1H-imidazo[1,2-a]benzimidazol-5-yl](dicyclopropyl)methanol] | < 1000 nM | 193 to 196 °C
8 | Cc1cc(Cl)cc(Cl)c1N1CCn2c1nc1cccc(C(O)(C3CC3)C3CC3)c12 [Example 428, Dicyclopropyl[1-(2,4-dichloro-6-methylphenyl)-2,3-dihydro-1H-imidazo[1,2-a]benzimidazol-5-yl]methanol] | < 1000 nM | 243 to 246 °C
9 | CCC(OC(=O)C1CC1)c1ccc(Cl)c2nc3n(c12)CCCN3c1ccc(Cl)cc1Cl (centres unmarked) [Example 431, 1-[9-Chloro-1-(2,4-dichlorophenyl)-1,2,3,4-tetrahydropyrimido[1,2-a]benzimidazol-6-yl]propyl cyclopropanecarboxylate] | < 1000 nM | 159 to 161 °C
10 | CCC(OC(=O)COC)c1ccc(Cl)c2nc3n(c12)CCCN3c1ccc(Cl)cc1Cl (centres unmarked) [Example 432, 1-[9-Chloro-1-(2,4-dichlorophenyl)-1,2,3,4-tetrahydropyrimido[1,2-a]benzimidazol-6-yl]propyl methoxyacetate] | < 1000 nM | 156 to 158 °C
11 | CCC(OC(=O)CS(C)(=O)=O)c1ccc(Cl)c2nc3n(c12)CCCN3c1ccc(Cl)cc1Cl (centres unmarked) [Example 433, 1-[9-Chloro-1-(2,4-dichlorophenyl)-1,2,3,4-tetrahydropyrimido[1,2-a]benzimidazol-6-yl]propyl (methylsulfonyl) acetate] | < 1000 nM | 187 to 189 °C
12 | CCC(OC(C)=O)c1ccc(Cl)c2nc3n(c12)CCN3c1c(C)cc(Cl)cc1Cl (centres unmarked) [Example 437, 1-[8-Chloro-1-(2,4-dichloro-6-methylphenyl)-2,3-dihydro-1H-imidazo[1,2-a]benzimidazol-5-yl]propyl acetate] | < 1000 nM | 190 to 192 °C
13 | CCC(NC(C)=O)c1ccc(Cl)c2nc3n(c12)CCCN3c1ccc(Cl)cc1Cl (centres unmarked) [Example 440, N-{1-[9-Chloro-1-(2,4-dichlorophenyl)-1,2,3,4-tetrahydropyrimido[1,2-a]benzimidazol-6-yl]propyl}acetamide] | < 1000 nM | 237 to 239 °C
14 | CCC(OC(=O)CO)c1ccc(Cl)c2nc3n(c12)CCCN3c1ccc(Cl)cc1Cl (centres unmarked) [Example 443, 1-[9-Chloro-1-(2,4-dichlorophenyl)-1,2,3,4-tetrahydropyrimido[1,2-a]benzimidazol-6-yl]propyl hydroxyacetate] | < 1000 nM | 191 to 193 °C
15 | CCC(NC(=O)OC)c1ccc(Cl)c2nc3n(c12)CCCN3c1ccc(Cl)cc1Cl (centres unmarked) [Example 446, Methyl {1-[9-chloro-1-(2,4-dichlorophenyl)-1,2,3,4-tetrahydropyrimido[1,2-a]benzimidazol-6-yl]propyl}carbamate] | < 1000 nM | 201 to 203 °C
16 | CCC(NC(=O)CC(F)(F)F)c1ccc(Cl)c2nc3n(c12)CCCN3c1ccc(Cl)cc1Cl (centres unmarked) [Example 447, N-{1-[9-Chloro-1-(2,4-dichlorophenyl)-1,2,3,4-tetrahydropyrimido[1,2-a]benzimidazol-6-yl]propyl}-3,3,3-trifluoropropanamide] | < 1000 nM | 285 to 290 °C
17 | CCC(CCO)c1ccc(Cl)c2nc3n(c12)CCCN3c1ccc(Cl)cc1Cl (centres unmarked) [Example 450, 3-[9-Chloro-1-(2,4-dichlorophenyl)-1,2,3,4-tetrahydropyrimido[1,2-a]benzimidazol-6-yl]pentan-1-ol] | < 1000 nM | 183 to 185 °C
18 | CCC(CC(C)=O)c1ccc(Cl)c2nc3n(c12)CCCN3c1ccc(Cl)cc1Cl (centres unmarked) [Example 452, 4-[9-Chloro-1-(2,4-dichlorophenyl)-1,2,3,4-tetrahydropyrimido[1,2-a]benzimidazol-6-yl]hexan-2-one] | < 1000 nM | 195 to 197 °C
19 | CCC(CCOC)c1ccc(Cl)c2nc3n(c12)CCCN3c1ccc(Cl)cc1Cl (centres unmarked) [Example 453, 9-Chloro-1-(2,4-dichlorophenyl)-6-(1-ethyl-3-methoxypropyl)-1,2,3,4-tetrahydropyrimido[1,2-a]benzimidazole] | < 1000 nM | 144 to 146 °C
20 | CCC(OCC(F)(F)F)c1ccc(Cl)c2nc3n(c12)CCCN3c1ccc(Cl)cc1Cl (centres unmarked) [Example 454, 9-Chloro-1-(2,4-dichlorophenyl)-6-[1-(2,2,2-trifluoroethoxy)propyl]-1,2,3,4-tetrahydropyrimido[1,2-a]benzimidazole] | < 1000 nM | 146 to 148 °C
21 | FC(F)(F)COC(c1ccc(Cl)c2nc3n(c12)CCCN3c1ccc(Cl)cc1Cl)C1CC1 (centres unmarked) [Example 455, 9-Chloro-6-[cyclopropyl (2,2,2-trifluoroethoxy)methyl]-1-(2,4-dichlorophenyl)-1,2,3,4-tetrahydropyrimido[1,2-a]benzimidazole] | < 1000 nM | 143 to 145 °C
22 | CCNC(CC)c1ccc(Cl)c2nc3n(c12)CCCN3c1ccc(Cl)cc1Cl (centres unmarked) [Example 458, 1-[9-Chloro-1-(2,4-dichlorophenyl)-1,2,3,4-tetrahydropyrimido[1,2-a]benzimidazol-6-yl]-N-ethylpropan-1-amine] | < 1000 nM | 124 to 127 °C
23 | CCC(NCC(F)(F)F)c1ccc(Cl)c2nc3n(c12)CCCN3c1ccc(Cl)cc1Cl (centres unmarked) [Example 459, 1-[9-Chloro-1-(2,4-dichlorophenyl)-1,2,3,4-tetrahydropyrimido[1,2-a]benzimidazol-6-yl]-N-(2,2,2-trifluoroethyl)propan-1-amine] | < 1000 nM | 133 to 135 °C
24 | CCC(c1ccc(Cl)c2nc3n(c12)CCCN3c1ccc(Cl)cc1Cl)S(=O)(=O)CC (centres unmarked) [Example 462] | < 1000 nM | 278 to 280 °C
25 | CCC(NC(=O)C(F)F)c1ccc(Cl)c2nc3n(c12)CCCN3c1ccc(Cl)cc1Cl (centres unmarked) [Example 463, N-{1-[9-Chloro-1-(2,4-dichlorophenyl)-1,2,3,4-tetrahydropyrimido[1,2-a]benzimidazol-6-yl]propyl}-2,2-difluoroacetamide] | < 1000 nM | 248 to 250 °C
26 | O=C(OC(c1ccc(Cl)c2nc3n(c12)CCCN3c1ccc(Cl)cc1Cl)C1CC1)C1CC1 (centres unmarked) [Example 478, 1-[9-Chloro-1-(2,4-dichlorophenyl)-1,2,3,4-tetrahydropyrimido[1,2-a]benzimidazol-6-yl](cyclopropyl)methyl cyclopropanecarboxylate] | < 1000 nM | 168 to 170 °C
27 | COCC(=O)OC(c1ccc(Cl)c2nc3n(c12)CCCN3c1ccc(Cl)cc1Cl)C1CC1 (centres unmarked) [Example 479] | < 1000 nM | 159 to 161 °C
28 | CCC(OC(=O)C1CC1)c1ccc(Cl)c2nc3n(c12)CCCN3c1ccc(OC)cc1Cl (centres unmarked) [Example 482, 1-[9-Chloro-1-(2-chloro-4-methoxyphenyl)-1,2,3,4-tetrahydropyrimido[1,2-a]benzimidazol-6-yl]propyl cyclopropanecarboxylate] | < 1000 nM | 130 to 132 °C
